Data on 2 molecules can be found in patent US20210361616A1, “AMELIORATING AGENT FOR FEMALE-SPECIFIC PHYSICAL AND/OR MENTAL UNPLEASANT SYMPTOM” (OTSUKA PHARMACEUTICAL CO., LTD., priority 2016, published 2021).

Common to all, as to assay type: in vivo, human
Assay [1] deals with people who had fluid retention before menstruation. As to the kind of experiment: Administration test of γ-tocopherol alone, VAS questionnaire. Conditions: 360 mg/day γ-tocopherol, 7 days, 25 people, placebo-controlled double-blind. As for the experimental part: (§1) Twenty-five people who had fluid retention before menstruation were subjected to randomly-assigned placebo-controlled double-blind tested group comparative study. […] An evaluation period is between the morning of the 6th day after the start of the continuous ingestion and the morning of the 8th day […]. Evaluation by questionnaires was conducted before every meal. An average value of variations from a start value of the evaluation was obtained to compare the tested group with the placebo group.
(§2) The evaluation by questionnaires was conducted by VAS (visual analog scale) and MDQ (menstrual distress questionnaire).
(§3) For VAS, the subjects indicated their symptoms about each questionnaire on a scale of “0 mm” (no symptom) to “100 mm” (the symptom is very strong/the symptom affects daily living), and an average value of variations from a start value of the evaluation was calculated. For MDQ, the subjects answered each questionnaire on a six-point scale of “0” (no symptom) to “5” (the symptom is very strong/the symptom affects daily living).

Assay [2] shares this test system. As to the kind of experiment: Administration test of γ-tocopherol alone, MDQ questionnaire. Particulars: 360 mg/day γ-tocopherol, 7 days, 25 people. As for the experimental part: as §1, §2, §3
For assay [3], the system named is people who had any unpleasant symptom before menstruation. In words: Combined administration test of γ-tocopherol and equol, MDQ questionnaire. Conditions: suggested by the results of Test Example 1 and Test Example 2; equol alone not administered.

`Cc1c(O)cc2c(c1C)O[C@](C)(CCC[C@H](C)CCC[C@H](C)CCCC(C)C)CC2` [γ-tocopherol]: in assay [1], the “VAS "annoyance or irritability" (mental unpleasant symptoms) as compared with a placebo group” value is reported as “significant amelioration” and the “VAS leg swelling (physical unpleasant symptoms) as compared with a placebo group” value is recorded as “significant amelioration”. In assay [2], the “proportion of people who had decreased MDQ scores as compared with the placebo group, "change in behavior"” value came to 32.0%; the “proportion of people who had decreased MDQ scores as compared with the placebo group, item "concentration ability"” value turned out to be 36.0%; the “proportion of people who had decreased MDQ scores as compared with the placebo group, item "fluid retention"” value is 56.0%; the “proportion of people who had decreased MDQ scores as compared with the placebo group, item "negative emotion"” value is 28.0%. In addition, the “proportion of people who had decreased MDQ scores as compared with the placebo group, item "pain"” value in assay [2] was 44.0%.
With `Oc1ccc(C2COc3cc(O)ccc3C2)cc1` (centres unmarked) [equol], in assay [3], the “effects of equol alone on "pain", "negative emotion", "concentration ability" and "change in behavior"” value is listed as “has effects”.
